Test results taken from patent US6458746B1, “Plant growth regulating formulations” (BASF Aktiengesellschaft, priority 1998, dated 2002).

How the values were obtained:
Format in all cases: in vivo
[1] = system: rice seedlings [cvs. “Koshihikari” (tall), “Tan-ginbozu” (dwarf), “Waito C” (dwarf)]; assay: Shoot growth of rice seedlings, combinations with GA3; conditions: for Shoot growth Waito C [% of Control] / Shoot growth Tan-ginbozu [% of Control] / Shoot growth Koshihikari [% of Control]: 7 days after treatment, 1 kg/ha ammonium sulphate added; for Shoot growth Waito C [% of Control]: 100% = 8.7 cm; for Shoot growth Tan-ginbozu [% of Control]: 100% = 9.4 cm; for Shoot growth Koshihikari [% of Control]: 100% = 17.4 cm
Procedure: (§1) Unless otherwise noted, the growth regulating proerties of different compounds in different formulations were determined under greenhouse conditions as follows: […]
(§2) Test plants were grown in plastic pots of approximately 12.5 cm in diameter in a substrate provided with sufficient nutrients and water. At an appropriate shoot length the plants were treated with aqueous sprays of the formulations. The growth-regulating action observed was confirmed at the end of the experiment by measuring the height of the plants. The results obtained were compared with the growth height of the untreated plants.
The synergizing effect of compound VII on shoot elongation in rice is shown in the results of Example 7.
Enhanced shoot growth of rice seedlings [cvs. “Koshihikari” tall), “Tan-ginbozu” (dwarf), “Waito C” (dwarf)] 7 days after treatment with combinations of compound 6 with GA3^d

[2] = system: oats; assay: Greenhouse shoot length test, oats; conditions: 1% formulations in cyclohexanone: Emulan EL = 4:1; also: key: 0: no effect; +: low activity; ++: intermediate activity; +++: high activity
Procedure: as §1, §2

[3] = system: spring wheat (cv. “Ralle”); assay: Shoot height reduction in spring wheat, synergistic combinations
Procedure: as §1, §2
(§3) To show the synergistic effects of formulations in accordance with the instant invention together with further growth regulating agents, formulations in accordance with the invention were prepared and additional active ingredients added.
Shoot height reduction in spring wheat (cv. “Ralle”) 21 days after treatment with combinations of standard compound S4 and compound VII
Shoot height reduction in spring wheat (cv. “Ralle”) 13 days after treatment with combinations of standard compound S5 and compound VII

[4] = system: barley; assay: Greenhouse shoot length test, barley; conditions: for Shoot length Barley [% of control]: 1% formulations in Atlas G 1086; for Shoot length [% of control] Barley: 2.5 g/ha ai; as to Shoot length reduction [activity, relative to control] in barley: key: 0: no effect; +: low activity; ++: intermediate activity; +++: high activity
Procedure: as §1, §2
(§4) Assays with wheat, barley, oat, and rye plants were carried out as described above. The aqueous spray solutions were prepared as follows: […]

[5] = system: spring barley (cv. “Alexis”); assay: Shoot height reduction in spring barley, synergistic combinations; conditions: 20 days after treatment
Procedure: as §1, §2, §3
Shoot height reduction in spring barley (cv. “Alexis”) 20 days after treatment with combinations of standard compound S2 and compound VII
Shoot height reduction in spring barley (cv. “Alexis”) 20 days after treatment with combinations of standard compound S4 and compound VII

[6] = system: wheat; assay: Greenhouse shoot length test, wheat; conditions: for Shoot length Wheat [% of control]: 1% formulations in Atlas G 1086; for Shoot length [% of control] Wheat: 2.5 g/ha ai
Procedure: as §1, §2, §4

[7] = system: rice; assay: Greenhouse shoot length test, rice; conditions: 1% formulations in cyclohexanone: Emulan EL = 4:1; also: key: 0: no effect; +: low activity; ++: intermediate activity; +++: high activity
Procedure: as §1, §2

[8] = system: rye; assay: Greenhouse shoot length test, rye; conditions: 1% formulations in cyclohexanone: Emulan EL = 4:1; also: key: 0: no effect; +: low activity; ++: intermediate activity; +++: high activity
Procedure: as §1, §2

[9] = system: small grains and rice (wheat, barley, oats, rye, rice); assay: Shoot length reduction in small grains and rice (statements across species); conditions: Examples 1 and 2
Procedure: as §1, §2

[10] = 1% formulations in cyclohexanone: Emulan EL = 4:1

## exo-16,17-Dihydro-GA5-13-acetate [Comp. VII]
[1]; VII 12.5 g/ha ai
  Shoot growth Waito C [% of Control]: 80 % of Control
  Shoot growth Tan-ginbozu [% of Control]: 74 % of Control
  Shoot growth Koshihikari [% of Control]: 75 % of Control
[1]; VII 25.0 g/ha ai
  Shoot growth Waito C [% of Control]: 80 % of Control
  Shoot growth Tan-ginbozu [% of Control]: 74 % of Control
  Shoot growth Koshihikari [% of Control]: 75 % of Control
[1]; VII 50.0 g/ha ai
  Shoot growth Waito C [% of Control]: 80 % of Control
  Shoot growth Tan-ginbozu [% of Control]: 74 % of Control
  Shoot growth Koshihikari [% of Control]: 75 % of Control
[1]; applied alone
  effect on shoot elongation in rice: reduces shoot elongation
[1]; applied in combination with GA3
  effect on the shoot growth-promoting effect of GA3: could clearly be raised
[2]
  Shoot length reduction [activity, relative to control] in oats: +++
[3]; 3 g/ha a.i., 21 days after treatment
  % Shoot height reduction Actual: 8%
[3]; 6 g/ha a.i., 13 days after treatment
  % Shoot height reduction Actual: 18%
[3]; 6 g/ha a.i., 21 days after treatment
  % Shoot height reduction Actual: 21%
[4]; [10]
  Shoot length reduction [activity, relative to control] in barley: +++
[4]; 1.6 g/ha ai
  Shoot length Barley [% of control]: 97 % of control
[4]; adjuvant Ethanol 500 g/ha
  Shoot length [% of control] Barley: 99 % of control
[4]; adjuvant R 15 500 g/ha
  Shoot length [% of control] Barley: 75 % of control
[4]; 3.1 g/ha ai
  Shoot length Barley [% of control]: 78 % of control
[4]; 6.3 g/ha ai
  Shoot length Barley [% of control]: 61 % of control
[4]; 12.5 g/ha ai
  Shoot length Barley [% of control]: 57 % of control
[5]; 3 g/ha a.i.
  % Shoot height reduction Actual: 6%
[5]; 3 g/ha a.i., S4/VII table
  % Shoot height reduction Actual: 6%
[5]; 6 g/ha a.i.
  % Shoot height reduction Actual: 18%
[5]; 6 g/ha a.i., S4/VII table
  % Shoot height reduction Actual: 18%
[6]; [10]
  Shoot length reduction [activity, relative to control] in wheat: +++
[6]; 1.6 g/ha ai
  Shoot length Wheat [% of control]: 90 % of control
[6]; adjuvant Ethanol 500 g/ha
  Shoot length [% of control] Wheat: 99 % of control
[6]; adjuvant R 15 500 g/ha
  Shoot length [% of control] Wheat: 73 % of control
[6]; 3.1 g/ha ai
  Shoot length Wheat [% of control]: 73 % of control
[6]; 6.3 g/ha ai
  Shoot length Wheat [% of control]: 70 % of control
[6]; 12.5 g/ha ai
  Shoot length Wheat [% of control]: 64 % of control
[7]
  Shoot length reduction [activity, relative to control] in rice: +++
[8]
  Shoot length reduction [activity, relative to control] in rye: +++
[9]
  shoot length reduction compared with compounds II to V: superior to compounds II to V
